One data set is described as follows: physchem. The settings on record: 22 °C. The source says:
Cystine, a sulfur-sulfur dimer of cysteine, can form in the presence of oxygen (air) in cysteine solutions. Cystine, especially the free base, is several orders of magnitude less soluble in aqueous solutions than cysteine, and the solubility of cystine decreases as the pH increases.

The conditions of data set [1]: cited from earlier work.
The mark [2] stands for this setting: aqueous with cosolvent or surfactant or cyclodextrin.

In brackets after ≈: the same amount, converted by molar mass. Like-named read-outs stand apart in the source and are kept apart here.

`Cl.Cl.N[C@@H](CSSC[C@H](N)C(=O)O)C(=O)O` [Cystine Dihydrochloride]: the values for the solubility in “physchem” (setting [2]) and in “physchem” (water) were 9930 µg/mL and 1040 µg/mL, respectively.

Consider `N[C@@H](CS)C(=O)O` [Cysteine free base, Cysteine], for which, in the data set “physchem” (water), the solubility turned out to be 18700 µg/mL (≈ 155000 µM).

Take `N[C@@H](CSSC[C@H](N)C(=O)O)C(=O)O` [Cystine free Base, Cystine]: the solubility result was “approximately 4 mg/mL” in data set [1] (pH 1.0), “approximately 1 mg/ml” in data set [1] (pH 1.4), 590 µg/mL (≈ 2460 µM) in “physchem” (setting [2]) and 140 µg/mL (≈ 583 µM) in “physchem” (water).

The term solubility denotes the concentration that dissolves in the medium under given conditions.
